This is an account of results in US10980900B2, “Imaging of meningiomas using phenylbenzothiazole, stilbene, or biphenylalkyne derivatives” (MAYO FOUNDATION FOR MEDICAL EDUCATION AND RESEARCH, priority 2010, dated 2021).

“Also recorded” adds a separate entry of the source.

Test [1] has as its system other intracranial tumors (schwannoma, metastasis) tissue sections. Description: Fluorescent 6-CN-PiB staining of other intracranial tumor tissue sections. It is filed as binding, human. Conditions: some other tumors, different staining pattern. The source says:
(§1) The Department of Pathology, Mayo Clinic Rochester Tumor Tissue Registry, contains tumor samples procured by autopsy and surgery. Meningiomas, brain metastases and other tumors were identified by searching CoPath, a Mayo Clinic electronic pathology database of tumors collected since 1982. Tumor type was confirmed by viewing H&E stained slides under a light microscope.
Fresh cut 5 μm thick sections were used. Each staining run included normal brain and Alzheimer diseased brain as controls. Fluorescent tissue staining and microscopy was performed similar to methods previously described at Ikonomovic M D, Klunk W E, Abrahamson E E, et al., “Post-mortem correlates of in vivo PiB-PET amyloid imaging in a typical case of Alzheimer's disease”, Brain: A Journal Of Neurology 2008; 131:1630-45. Meningioma and other brain tumor sections were stained with 100 nM CN-PiB, 100 nM of unlabeled PiB or with saline alone as a negative control. The staining protocol was as follows: deparaffinization and rehydration, 0.25% KMnO4 incubation, water wash, 1% K2S2O5/1% Oxalic Acid incubation, water wash, PBS wash, 6-CN-PiB/PiB/saline incubation, PBS wash, NaCl, K2HPO4, and KH2PO4 incubation, water wash, mount coverslip, and storage at 4° C. in the dark until imaged. Slides were imaged within five days of staining. […]

In test [2] the test system is meningioma tissue sections. Description: Fluorescent PiB / 6-CN-PiB staining of meningioma tissue sections. It is filed as binding, human.
Description: as §1
Fresh cut 5 μm thick sections were used. Each staining run included normal brain and Alzheimer diseased brain as controls. Fluorescent tissue staining and microscopy was performed similar to methods previously described at Ikonomovic M D, Klunk W E, Abrahamson E E, et al., “Post-mortem correlates of in vivo PiB-PET amyloid imaging in a typical case of Alzheimer's disease”, Brain: A Journal Of Neurology 2008; 131:1630-45. Meningioma and other brain tumor sections were stained with 100 nM CN-PiB, 100 nM of unlabeled PiB or with saline alone as a negative control. The staining protocol was as follows: deparaffinization and rehydration, 0.25% KMnO4 incubation, water wash, 1% K2S2O5/1% Oxalic Acid incubation, water wash, PBS wash, 6-CN-PiB/PiB/saline incubation, PBS wash, NaCl, K2HPO4, and KH2PO4 incubation, water wash, mount coverslip, and storage at 4° C. in the dark until imaged. Slides were imaged within five days of staining.
Tissue stain images were obtained on a Zeiss 510 confocal microscope with excitation at 405 nm, a 420-480 bandpass filter, and the laser set at 15% power. Images were obtained with a C-Apochromat 40×/1.2 W lens.

In test [3] the test system is non-meningioma tumors and lesions. The test is described as follows: PiB PET/CT imaging of non-meningioma tumors and lesions in patients. It is filed as in vivo, human. From the text:
(§2) An Alzheimer's imaging database of two hundred forty-one patients was reviewed. […] All patients had been imaged by at least one MRI, as well as by FDG-PET/CT and PET/CT using the compound of formula (V). MRI reports of all patients were reviewed for possible meningiomas and other tumors. […] The diagnostic confidence of the radiologists interpreting the studies varied slightly, depending on factors such as tumor location and previous imaging. […] Tumors smaller than 7 millimeters are generally considered too small to be evaluated by PET or PET/CT. This is an excepted limitation of PET or PET/CT as a modality. […] None of the meningiomas in the series would be classified as atypical or aggressive based on MRI or CT imaging. One presumed extracranial schwannoma was seen, showing mild uptake on FDG-PET/CT, but no uptake on PET/CT using the compound of formula (V).
(§3) The radiologic interpretations of MRI, CT and FDG PET/CT scans from a population of 834 people who participated in the population-based Mayo Clinic Study of Aging (MCSA) from March 2006 through September 2011 were reviewed for the presence of tumors or other brain lesions. (See, Kantarci K, Lowe V, Przybelski S A, et al., “Magnetic resonance spectroscopy, {beta}-amyloid load, and cognition in a population-based sample of cognitively normal older adults”, Neurology 2011; 77:951-8; and Roberts R O, Geda Y E, Knopman D S, et al., “The Mayo Clinic Study of Aging: design and sampling, participation, baseline measures and sample characteristics”, Neuroepidemiology 2008; 30:58-69.) Participants were randomly selected for recruitment in the MCSA from a population of older adult residents of Olmsted County, Minn., USA. Those with neurological, psychological or systemic illnesses were not excluded. Individuals with dementia, or those unable to be imaged for medical reasons were excluded. All patients were imaged with C11-PiB PET/CT, F18-FDG PET/CT and non-contrast MRI at least once as part of the study. Any additional patient imaging and clinical history was then reviewed.
Tumors found in any of the subjects were then categorized as possible meningiomas or non-meningiomas based on the reading of the reporting neuroradiologist. Possible meningiomas were further reviewed as a group. […]
PET imaging was performed as part of the Mayo Clinic Study of Aging as previously described. […] Cerebral PiB retention, a marker of amyloid deposition, was measured as previously described. […]

A short description of test [4]: PiB PET/CT activity in normal tissues near the tumors. It is filed as in vivo, human.
Description: as §3
PET imaging was performed as part of the Mayo Clinic Study of Aging as previously described. (See Kantarci K, Lowe V, Przybelski S A, et al., “Magnetic resonance spectroscopy, {beta}-amyloid load, and cognition in a population-based sample of cognitively normal older adults”, Neurology 2011; 77:951-8.) PiB PET/CT, then FDG PET/CT were performed on the same day. PET/CT imaging was performed on a 690XT or DRX PET/CT tomograph (GE Healthcare). The PET sinograms were reconstructed using a fully-3D OSEM algorithm into a 30 cm field of view; the pixel size was 1.2 mm and the slice thickness was 3.27 mm (DRX) or 1.96 mm (690XT). CT imaging was obtained immediately prior to PET acquisition and used for attenuation correction. Cerebral PiB retention, a marker of amyloid deposition, was measured as previously described. […]

Test [5] has as its system meningiomas. The test is described as follows: PiB PET/CT imaging of meningiomas in patients. It is filed as in vivo, human.
Description: as §2, §3
Tumors found in any of the subjects were then categorized as possible meningiomas or non-meningiomas based on the reading of the reporting neuroradiologist. Possible meningiomas were further reviewed as a group. A more strict set of criteria were applied to select a subset of the possible meningiomas that were designated “high-likelihood meningiomas” for further analysis and were defined by (1) tumors that were confirmed to be enhancing on diagnostic MRI (obtained separately for clinical purposes) and (2) tumors that had greater than two years of follow-up imaging confirming no growth or slow growth (1-2 mm per year). When the lead diagnosis of the identified tumor was metastasis, the diagnosis was confirmed by biopsy or autopsy. All tumors smaller than 5 mm thick were excluded, given they fall below the generally accepted lower limits of PET/CT resolution.
PET imaging was performed as part of the Mayo Clinic Study of Aging as previously described. (See Kantarci K, Lowe V, Przybelski S A, et al., “Magnetic resonance spectroscopy, {beta}-amyloid load, and cognition in a population-based sample of cognitively normal older adults”, Neurology 2011; 77:951-8.) PiB PET/CT, then FDG PET/CT were performed on the same day. PET/CT imaging was performed on a 690XT or DRX PET/CT tomograph (GE Healthcare). The PET sinograms were reconstructed using a fully-3D OSEM algorithm into a 30 cm field of view; the pixel size was 1.2 mm and the slice thickness was 3.27 mm (DRX) or 1.96 mm (690XT). CT imaging was obtained immediately prior to PET acquisition and used for attenuation correction. Cerebral PiB retention, a marker of amyloid deposition, was measured as previously described. (See Kantarci K, Lowe V, Przybelski S A, et al. “Magnetic resonance spectroscopy, {beta}-amyloid load, and cognition in a population-based sample of cognitively normal older adults”, Neurology 2011; 77:951-8.) […]

Test [6] deals with meningiomas. The test is described as follows: FDG PET/CT imaging of meningiomas in patients. It is filed as in vivo, human.
Description: (§4) An Alzheimer's imaging database of two hundred forty-one patients was reviewed. […] MRI reports of all patients were reviewed for possible meningiomas and other tumors. […] Tumors smaller than 7 millimeters are generally considered too small to be evaluated by PET or PET/CT.
as §3
(§5) PET imaging was performed as part of the Mayo Clinic Study of Aging as previously described. (See Kantarci K, Lowe V, Przybelski S A, et al., “Magnetic resonance spectroscopy, {beta}-amyloid load, and cognition in a population-based sample of cognitively normal older adults”, Neurology 2011; 77:951-8.) PiB PET/CT, then FDG PET/CT were performed on the same day. PET/CT imaging was performed on a 690XT or DRX PET/CT tomograph (GE Healthcare). […] Cerebral PiB retention, a marker of amyloid deposition, was measured as previously described. […]

The test system of a further test is non-meningioma tumors. The test is described as follows: FDG PET/CT imaging of non-meningioma tumors in patients. It is filed as in vivo, human.
Description: as §4, §3, §5

Where [7] appears, read: meningiomas 5 mm and thicker vs all other tumors in the 834 patient population.

Consider `CNc1ccc(-c2nc3ccc(C#N)cc3s2)cc1` [Formula 6-CN-PiB], for which the 6-CN-PiB binding result in test [1] is reported as “Moderate”. The fluorescent staining entry in test [2] (WHO grade I meningothelial meningioma (FIG. 6 Panel D), 100 nM) is given as “positively; also recorded: intense fluorescence”. Also, in test [2] (all meningiomas (n=7) vs other intracranial tumors (n=6)), the “staining brightness vs other intracranial tumors” value is “qualitatively brighter”.

Take `[11CH3]Nc1ccc(-c2nc3ccc(O)cc3s2)cc1` [Formula (V), [N-Methyl-^11C]2-(4′-methylaminophenyl)-6-hydroxybenzothiazole]: in test [3] (all other intracranial tumors imaged (metastases, pituitary macroadenomas, schwannomas, ependymoma)), the “PiB activity relative to normal adjacent tissue” value is on record as “equal or less than normal adjacent tissue”. Moreover, the “result on PiB PET/CT” value in test [3] (both intracranial metastases (FIG. 4), pathologically confirmed) is given as “negative”. The “result on research PiB PET/CT” value in test [3] (melanoma metastasis case) is “negative”. The PiB activity result in test [3] (non-tumorous lesions (strokes, arachnoid cysts, multiple sclerosis lesions)) is recorded as “only trace”. Further, the “average PiB activity, SUVmax” value was determined as 0.6 in test [4] (nearby normal bone) and 1.1 in test [4] (nearby normal grey matter). Also, in test [4] (surrounding cerebrospinal fluid), the “average background PiB activity, SUVmax” value came out at 0.2. Further, in test [2] (tissue sections from meningiomas, 100 nM unlabeled PiB), the “staining of tissue sections” value is given as “brightly positive”. The “SUVmax (by body weight), range” value in the test with meningiomas [5] (16 high-likelihood meningiomas, PiB PET/CT) was 1.4-3.6. In addition, the “result on repeat PET/CT imaging” value in the test with meningiomas [5] (Example 3: one patient imaged two times, many months in between) is recorded as “same positive results”. The “activity at the meningioma on PET and CT images” value with meningiomas [5] (Patient #1, mass along right tentorium cerebelli (FIG. 1)) is given as “intense activity”; in the test on meningiomas [5] (Patient #4, mass along tuberculum sellae and planum sphenoidale (FIG. 2)), “intense activity”. In addition, the “result on PiB PET/CT imaging” value in the test on meningiomas [5] (all 16 high-likelihood meningiomas) is “clearly diagnostically positive”. In the test on meningiomas [5] (all 16 meningiomas identified by strict imaging criteria), the “PiB activity relative to normal adjacent tissues” value was “greater than normal adjacent tissues”. Moreover, in the test on meningiomas [5] (setting [7]), the “sensitivity of PiB PET/CT for meningiomas” value worked out at 100%. Further, in the test on meningiomas [5] (setting [7]), the “specificity of PiB PET/CT for meningiomas” value was 100%. In addition, the “SUVmax of meningioma on repeat imaging” value in the test with meningiomas [5] (two patients imaged with PiB PET/CT more than once) is given as “stable or increasing”.

Consider Fluorodeoxyglucose [FDG], for which the FDG activity entry is reported as “only trace” in the test with meningiomas [6] (2.6 cm thick meningioma of right tentorium (FIG. 3)) and “moderate to high” in the test with meningiomas [6] (seven of the 16 high-likelihood meningiomas). Further, the “FDG PET activity” value is given as “increased” in the test with meningiomas [6] (meningioma in FIG. 4 panels G-I); “increased” with non-meningioma tumors (melanoma and small cell lung cancer metastases (FIG. 4)). Besides, the “result on FDG PET/CT” value in the test with non-meningioma tumors (melanoma metastasis case, initial imaging) is on record as “positive”; in the test with non-meningioma tumors (pituitary macroadenoma (FIG. 5 Panel B)), “positive”.
